According to the NIST ThermoML archive (doi:10.1016/j.jct.2013.12.025):

Assay: xn = mol fraction of the nth substance listed
Conditions: 101 kPa, Liquid, Vibrating tube method

C=C[Si](C)(C)O[Si](C)(C)C=C [1,3-diethenyl-1,1,3,3-tetramethyldisiloxane] + CCc1ccccc1
mass density [kg/m3]
Conditions	283.15 K	288.15 K	293.15 K	298.15 K	303.15 K
x1 = 0.0501	871.7	867.28	862.84	858.47	854.01
x1 = 0.1001	867.93	863.46	858.98	854.58	850.08
x1 = 0.1499	864.35	859.85	855.33	850.89	846.35
x1 = 0.2001	860.93	856.41	851.85	847.37	842.8
x1 = 0.25	857.68	853.12	848.52	844.02	839.42
x1 = 0.3	854.59	850	845.38	840.85	836.21
x1 = 0.3499	851.64	847.02	842.37	837.8	833.13
x1 = 0.4	848.82	844.17	839.49	834.91	830.22
x1 = 0.4501	846.13	841.46	836.76	832.14	827.42
x1 = 0.5	843.56	838.86	834.13	829.5	824.76
x1 = 0.5503	841.09	836.39	831.62	826.96	822.2
x1 = 0.6	838.73	834.01	829.22	824.53	819.75
x1 = 0.6501	836.45	831.7	826.89	822.19	817.38
x1 = 0.6999	834.3	829.53	824.71	819.97	815.14
x1 = 0.7502	832.18	827.39	822.55	817.79	812.94
x1 = 0.8001	830.16	825.33	820.48	815.7	810.84
x1 = 0.85	828.22	823.42	818.54	813.71	808.83
x1 = 0.8999	826.37	821.53	816.65	811.81	806.91
x1 = 0.9498	824.65	819.79	814.89	810.02	805.11
x1 = 1	822.79	817.88	812.97	808.11	803.18

C=C[Si](C)(C)O[Si](C)(C)C=C [1,3-diethenyl-1,1,3,3-tetramethyldisiloxane] + COc1ccccc1
mass density [kg/m3]
Conditions	283.15 K	288.15 K	293.15 K	298.15 K	303.15 K
x1 = 0.0501	987.07	982.37	977.74	973.02	968.3
x1 = 0.1	972.12	967.42	962.75	958.01	953.27
x1 = 0.15	958.3	953.58	948.89	944.14	939.38
x1 = 0.2004	945.4	940.66	935.96	931.19	926.42
x1 = 0.2499	933.62	928.87	924.15	919.36	914.57
x1 = 0.3	922.54	917.77	913.04	908.24	903.45
x1 = 0.35	912.24	907.47	902.73	897.91	893.1
x1 = 0.3997	902.67	897.88	893.12	888.29	883.45
x1 = 0.4499	893.63	888.81	884.04	879.2	874.35
x1 = 0.5001	885.14	880.31	875.53	870.68	865.82
x1 = 0.5499	877.24	872.4	867.62	862.75	857.88
x1 = 0.6	869.73	864.89	860.09	855.21	850.33
x1 = 0.6499	862.68	857.84	853.04	848.15	843.25
x1 = 0.6999	856.02	851.16	846.35	841.46	836.55
x1 = 0.7499	849.72	844.85	840.03	835.13	830.23
x1 = 0.8	843.72	838.85	834.02	829.11	824.19
x1 = 0.8499	838.07	833.19	828.35	823.44	818.52
x1 = 0.8998	832.69	827.81	822.98	818.06	813.14
x1 = 0.9499	827.56	822.67	817.83	812.91	808
x1 = 1	822.67	817.77	812.92	808	803.07

C=C[Si](C)(C)O[Si](C)(C)C=C [1,3-diethenyl-1,1,3,3-tetramethyldisiloxane] + Clc1ccccc1
mass density [kg/m3]
Conditions	283.15 K	288.15 K	293.15 K	298.15 K	303.15 K
x1 = 0.05	1088.46	1083.08	1077.71	1072.36	1066.76
x1 = 0.0998	1062.49	1057.12	1051.77	1046.38	1040.76
x1 = 0.15	1038.61	1033.26	1027.97	1022.56	1017.01
x1 = 0.1996	1017.1	1011.78	1006.49	1001.12	995.49
x1 = 0.25	997.1	991.8	986.55	981.23	975.62
x1 = 0.2999	978.91	973.63	968.41	963.12	957.62
x1 = 0.35	962.04	956.8	951.57	946.3	940.79
x1 = 0.3999	946.48	941.25	936.1	930.87	925.47
x1 = 0.4496	932.12	926.93	921.78	916.57	911.17
x1 = 0.4999	918.61	913.45	908.32	903.14	897.77
x1 = 0.5499	906.09	900.94	895.84	890.68	885.33
x1 = 0.6	894.37	889.27	884.19	879.04	873.73
x1 = 0.6469	884.06	878.98	873.94	868.82	863.55
x1 = 0.6998	873.18	868.11	863.11	858.02	852.81
x1 = 0.7499	863.47	858.44	853.45	848.41	843.25
x1 = 0.7997	854.39	849.39	844.44	839.42	834.3
x1 = 0.8499	845.78	840.8	835.87	830.88	825.82
x1 = 0.8996	837.7	832.75	827.85	822.88	817.86
x1 = 0.9497	830	825.08	820.22	815.27	810.3
x1 = 1	822.68	817.77	812.94	808.01	803.06

C=C[Si](C)(C)O[Si](C)(C)C=C [1,3-diethenyl-1,1,3,3-tetramethyldisiloxane] + Fc1ccccc1
mass density [kg/m3]
Conditions	283.15 K	288.15 K	293.15 K	298.15 K	303.15 K
x1 = 0.05	1013.6	1007.66	1001.73	995.86	989.74
x1 = 0.1	992.96	987.08	981.21	975.37	969.31
x1 = 0.15	974.59	968.74	962.94	957.17	951.1
x1 = 0.1993	958.3	952.51	946.77	941.03	934.98
x1 = 0.25	943.25	937.46	931.8	926.13	920.12
x1 = 0.2999	929.85	924.19	918.57	913	907.17
x1 = 0.35	917.58	911.93	906.37	900.84	895
x1 = 0.4	906.43	900.85	895.33	889.86	884.09
x1 = 0.45	896.19	890.66	885.22	879.75	874.12
x1 = 0.5	886.76	881.29	875.91	870.51	864.97
x1 = 0.5501	878.08	872.69	867.38	862.04	856.56
x1 = 0.6	870.07	864.73	859.45	854.19	848.77
x1 = 0.6501	862.6	857.33	852.11	846.89	841.53
x1 = 0.7	855.69	850.46	845.29	840.15	834.87
x1 = 0.7501	849.23	844.06	838.93	833.84	828.63
x1 = 0.8	843.23	838.1	833.02	827.99	822.84
x1 = 0.85	837.56	832.51	827.46	822.49	817.39
x1 = 0.8998	832.28	827.28	822.3	817.36	812.32
x1 = 0.95	827.28	822.33	817.38	812.49	807.52
x1 = 1	822.56	817.66	812.74	807.9	802.97
